# Reference: US7642350B2, “Purine derivatives” (Pfizer Limited, priority 2005, dated 2010)
# Read-outs that look alike come from different tables or passages of the source.
# How the values were obtained:
# TLR7 receptor [1] = target: T1, TLR7 receptor (Homo sapiens, UniProt Q9NYK1); test: cell-based; conditions: for inhibition at 10 µM: read-out: inhibition at 10 μM
# T1 sequence (Q9NYK1 27-1049): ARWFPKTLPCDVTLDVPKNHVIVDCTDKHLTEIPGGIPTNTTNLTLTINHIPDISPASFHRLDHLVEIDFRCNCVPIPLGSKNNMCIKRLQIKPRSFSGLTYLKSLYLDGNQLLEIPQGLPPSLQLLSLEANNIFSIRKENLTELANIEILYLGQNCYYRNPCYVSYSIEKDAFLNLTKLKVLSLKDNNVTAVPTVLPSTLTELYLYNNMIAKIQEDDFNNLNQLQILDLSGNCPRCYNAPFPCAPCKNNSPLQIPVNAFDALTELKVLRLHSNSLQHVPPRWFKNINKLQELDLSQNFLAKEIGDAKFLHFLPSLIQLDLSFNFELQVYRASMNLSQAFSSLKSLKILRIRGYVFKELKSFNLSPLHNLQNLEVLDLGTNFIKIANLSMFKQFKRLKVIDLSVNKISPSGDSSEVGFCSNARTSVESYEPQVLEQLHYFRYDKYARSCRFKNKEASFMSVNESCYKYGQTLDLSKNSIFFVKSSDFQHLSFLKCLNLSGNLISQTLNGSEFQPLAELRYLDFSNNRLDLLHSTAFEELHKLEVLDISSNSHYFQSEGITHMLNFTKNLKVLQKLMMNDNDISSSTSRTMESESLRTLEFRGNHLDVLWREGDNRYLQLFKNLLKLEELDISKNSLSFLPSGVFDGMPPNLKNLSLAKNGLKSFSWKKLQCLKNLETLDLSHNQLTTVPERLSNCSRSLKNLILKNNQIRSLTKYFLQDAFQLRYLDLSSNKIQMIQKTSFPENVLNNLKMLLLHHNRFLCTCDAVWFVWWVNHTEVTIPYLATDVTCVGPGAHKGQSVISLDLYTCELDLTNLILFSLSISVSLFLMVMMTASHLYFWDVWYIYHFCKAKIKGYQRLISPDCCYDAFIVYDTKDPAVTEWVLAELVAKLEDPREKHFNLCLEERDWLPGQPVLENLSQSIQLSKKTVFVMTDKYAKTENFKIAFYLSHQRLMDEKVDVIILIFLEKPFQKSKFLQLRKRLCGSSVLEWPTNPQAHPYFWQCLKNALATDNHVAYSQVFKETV
# Protocol: (§1) PBL contain as a subpopulation plasmacytoid dendritic cells which are the natural interferon producing cells during an infection and as such are an excellent model in which to profile interferon inducers. As an extremely sensitive antiviral bioassay, supernatant taken from PBL is assayed for antiviral activity in the HCV replicon system.
# (§2) The HCV replicon (Huh-5-2[I389luc-ubi-neo-NS3-3′/ET]) is an in vitro model of HCV replication in which the luciferase reporter is incorporated into HCV sequences and stably maintained in the human hepatoma cell line Huh-7. The firefly luciferase reporter is expressed as a luciferase-ubiquitin-neomycin phosphotransferase fusion protein which is cleaved by host proteases to release luciferase. The replicon also contains an internal EMCV IRES, which drives translation of HCV NS3-5B polyprotein, which harbour cell culture adapted mutations to permit high cloning efficiency. […] Firefly luciferase activity is detected using a Bright-Glo™ Luciferase Assay System manufactured by Promega.
# (§3) An initial 3 fold serial dilution series of compounds in 100% DMSO is prepared from stocks. The dilution series is then further diluted 100 fold with complete RPMI—FCS. The final concentration of DMSO in the assay is thus 0.1% and that of the test compound is 1/1000 in the 100% DMSO dilution series.
# (§4) PBL are prepared seeded at 5×10^5/well/90 μl into the previously prepared compound containing assay plates (96 well clear bottomed TC grade) and incubated for 24 h.
# (§5) LucUbiNeo HCV replicon cells are seeded at 10^4/well/90 μl. These are incubated for 24 h. After 24 h 10 μl of medium is transferred from the PBL assay plates to the HCV replicon plates and incubated for a further 48 h.
# TLR7 receptor [2] = target: T1, TLR7 receptor; conditions: read-out: EC50 (antiviral EC50); concentration of test compound applied to PBL (24 h) giving 50% reduction of HCV replicon levels after transfer of PBL medium to Huh-5-2 luciferase replicon cells (48 h)
# Protocol: as §1, §2, §3, §4, §5
Compound,EC50 (TLR7 receptor [1]),inhibition at 10 µM (TLR7 receptor [1]),EC50 (TLR7 receptor [2])
"Nc1nc(C(=O)NCC2CC2)nc2c1[nH]c(=O)n2Cc1ccccc1 [Example 1, 6-Amino-9-benzyl-8-oxo-8,9-dihydro-7H-purine-2-carboxylic acid cyclopropylmethyl-amide]",30 nM,> 50%,
COCCNC(=O)c1nc(N)c2[nH]c(=O)n(Cc3ccccc3)c2n1 [Example 2],,> 50%,5 nM
Nc1nc(C(=O)N2CCC2)nc2c1[nH]c(=O)n2Cc1ccccc1 [Example 4],72 nM,> 50%,
CNC(=O)c1nc(N)c2[nH]c(=O)n(Cc3ccccc3)c2n1 [Example 5],42 nM,> 50%,
CCNC(=O)c1nc(N)c2[nH]c(=O)n(Cc3ccccc3)c2n1 [Example 6],17 nM,> 50%,
NC(=O)c1nc(N)c2[nH]c(=O)n(Cc3ccccc3)c2n1 [Example 11],,> 50%,
Nc1nc(C(=O)NCc2ccccc2)nc2c1[nH]c(=O)n2Cc1ccccc1 [Example 14],,> 50%,
COCCn1c(=O)[nH]c2c(N)nc(C(=O)NCc3ccccc3)nc21 [Example 33],,> 50%,
COCCn1c(=O)[nH]c2c(N)nc(C(=O)N(C)Cc3ccccc3)nc21 [Example 36],,> 50%,
"Cc1ccc(S(=O)(=O)NC(=O)c2nc(N)c3[nH]c(=O)n(Cc4ccccc4)c3n2)cc1 [Example 221, 6-Amino-9-benzyl-N-(toluylsulfonyl)-8-oxo-8,9-dihydro-7H-purine-2-carboxamide]",,> 50%,
Nc1nc(C(=O)NS(=O)(=O)c2ccccc2)nc2c1[nH]c(=O)n2Cc1ccccc1 [Example 222],,> 50%,
CCCCS(=O)(=O)NC(=O)c1nc(N)c2[nH]c(=O)n(Cc3ccccc3)c2n1 [Example 226],,> 50%,
